In PubChem BioAssay AID248 (DTP/NCI, 2004):
Where “and” joins values, the source holds several entries; their conditions need not be identical. Identical values can stand only once. Toxic doses and inconclusive results are not listed. No stated cut-off is given here; in the data, active means T/C of 150% or more; inactive means T/C below 125%.

Test system: L1210 leukemia ip in BDF1 mice, survival T/C
Assay: NCI In Vivo Anticancer Drug Screen. Data for tumor model L1210 Leukemia (intraperitoneal) in B6D2F1 (BDF1) mice
Details: endpoint: mean survival time, higher = longer survival
Method in brief: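 Transplanted-tumor mice were given test agent; controls received vehicle only. Survival readings from the two groups were divided (treated over control).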

[1] = dose: 100.0 mg/kg/injection, schedule: Q01DX001 (ip), vehicle: saline
[2] = dose: 200.0 mg/kg/injection, schedule: Q01DX001 (ip), vehicle: saline
[3] = dose: 100.0 mg/kg/injection, schedule: Q01DX009 (ip), vehicle: saline with Tween-80
[4] = dose: 200.0 mg/kg/injection, schedule: Q01DX009 (ip), vehicle: saline with Tween-80
[5] = dose: 400.0 mg/kg/injection, schedule: Q01DX009 (ip), vehicle: saline with Tween-80
[6] = dose: 75.0 mg/kg/injection, schedule: Q01DX001 (ip), vehicle: other

Measured: T/C

CN/N=C/c1cc(=O)[nH]c(=O)[nH]1
inactive: dose: 50.0 mg/kg/injection, schedule: Q01DX001 (ip), vehicle: saline 101 % of control | [1] 104 % of control | [2] 95 % of control

CCCCCCCCCCCCCCCCCCNC(=O)Nc1cc(C)ccc1C
inactive: dose: 100.0 mg/kg/injection, schedule: Q01DX009 (ip), vehicle: gum acacia 87 % of control | dose: 100.0 mg/kg/injection, schedule: Q04DX003 (ip), vehicle: gum acacia 92 % of control | dose: 200.0 mg/kg/injection, schedule: Q01DX009 (ip), vehicle: gum acacia 96 % of control | dose: 200.0 mg/kg/injection, schedule: Q04DX003 (ip), vehicle: gum acacia 92 % of control | dose: 400.0 mg/kg/injection, schedule: Q01DX009 (ip), vehicle: gum acacia 92 % of control | dose: 400.0 mg/kg/injection, schedule: Q04DX003 (ip), vehicle: gum acacia 87 % of control

Cc1ccc(-c2nnc3n2C(C)(C)N=C(N)N3)cc1
inactive: dose: 100.0 mg/kg/injection, schedule: Q04DX003 (ip), vehicle: saline with Tween-80 105 % of control | dose: 200.0 mg/kg/injection, schedule: Q04DX003 (ip), vehicle: saline with Tween-80 91 % of control | dose: 400.0 mg/kg/injection, schedule: Q04DX003 (ip), vehicle: saline with Tween-80 101 % of control

OC1CCN2CCCc3cccc1c32 (centres undefined)
inactive: dose: 12.5 mg/kg/injection, schedule: Q01DX009 (ip), vehicle: DMSO 93 % of control | dose: 12.5 mg/kg/injection, schedule: Q04DX003 (ip), vehicle: DMSO 94 % of control | dose: 25.0 mg/kg/injection, schedule: Q01DX009 (ip), vehicle: DMSO 94 % of control | dose: 25.0 mg/kg/injection, schedule: Q04DX003 (ip), vehicle: DMSO 95 % of control | dose: 50.0 mg/kg/injection, schedule: Q01DX009 (ip), vehicle: DMSO 90 % of control | dose: 50.0 mg/kg/injection, schedule: Q04DX003 (ip), vehicle: DMSO 105 % of control

Cc1ccc2c(n1)Nc1nc(N)[nH]c(=O)c1S2
inactive: dose: 12.5 mg/kg/injection, schedule: Q04DX003 (ip), vehicle: carboxymethylcellulose (CMC) 97 % of control | dose: 25.0 mg/kg/injection, schedule: Q04DX003 (ip), vehicle: carboxymethylcellulose (CMC) 97 % of control

O=C(O)/C=C/c1cc(O)c(O)c(O)c1
inactive: dose: 25.0 mg/kg/injection, schedule: Q01DX001 (ip), vehicle: other 100 % of control | dose: 50.0 mg/kg/injection, schedule: Q01DX001 (ip), vehicle: other 99 % of control | dose: 100.0 mg/kg/injection, schedule: Q01DX001 (ip), vehicle: other 94 % of control

COc1ccc(C(=O)O)c(O)c1O
inactive: [3] 102 % of control | [4] 104 % of control | [5] 101 % of control

Cc1ccc(N=Nc2c(O)ccc3ccccc23)cc1
inactive: dose: 50.0 mg/kg/injection, schedule: Q01DX001 (ip), vehicle: carboxymethylcellulose (CMC) 91 % of control | dose: 100.0 mg/kg/injection, schedule: Q01DX001 (ip), vehicle: carboxymethylcellulose (CMC) 91 % of control | dose: 200.0 mg/kg/injection, schedule: Q01DX001 (ip), vehicle: carboxymethylcellulose (CMC) 91 % of control | dose: 400.0 mg/kg/injection, schedule: Q01DX001 (ip), vehicle: carboxymethylcellulose (CMC) 91 % of control

Nc1ccccc1-c1ccccc1N
inactive: dose: 25.0 mg/kg/injection, schedule: Q04DX002 (ip), vehicle: saline 100 % of control | dose: 50.0 mg/kg/injection, schedule: Q04DX002 (ip), vehicle: saline 98 % of control | dose: 100.0 mg/kg/injection, schedule: Q01DX009 (ip), vehicle: Klucel (hydroxypropylcellulose) (HPC) 96 % of control | dose: 100.0 mg/kg/injection, schedule: Q04DX002 (ip), vehicle: saline 114 % of control | dose: 100.0 mg/kg/injection, schedule: Q04DX003 (ip), vehicle: Klucel (hydroxypropylcellulose) (HPC) 94 % of control | dose: 200.0 mg/kg/injection, schedule: Q01DX009 (ip), vehicle: Klucel (hydroxypropylcellulose) (HPC) 102 % of control | dose: 200.0 mg/kg/injection, schedule: Q04DX003 (ip), vehicle: Klucel (hydroxypropylcellulose) (HPC) 91 % of control | dose: 400.0 mg/kg/injection, schedule: Q01DX009 (ip), vehicle: Klucel (hydroxypropylcellulose) (HPC) 93 % of control | dose: 400.0 mg/kg/injection, schedule: Q04DX003 (ip), vehicle: Klucel (hydroxypropylcellulose) (HPC) 104 % of control

CCN(CC)CCCN1C(=O)c2ccccc2S1(=O)=O
inactive: dose: 44.0 mg/kg/injection, schedule: Q01DX Z (ip), vehicle: saline 102 % of control | dose: 66.0 mg/kg/injection, schedule: Q01DX Z (ip), vehicle: saline 102 % of control | dose: 100.0 mg/kg/injection, schedule: Q01DX Z (ip), vehicle: saline 108 % of control

CCCCN(C)N=Nc1c[nH]c(=O)[nH]c1=O
inactive: [6] 95 % of control

CC1=CS(=O)(=O)CC(=O)N1
inactive: [3] 101 % of control | [4] 100 % of control | [5] 97 % of control

CCN(CC)c1ccc(N=Nc2ncn[nH]2)c(O)c1
inactive: dose: 100.0 mg/kg/injection, schedule: Q01DX001 (ip), vehicle: saline with Tween-80 100 % of control | dose: 200.0 mg/kg/injection, schedule: Q01DX001 (ip), vehicle: saline with Tween-80 98 % of control | dose: 400.0 mg/kg/injection, schedule: Q01DX001 (ip), vehicle: saline with Tween-80 88 % of control

CNC(=O)CCCCC(=O)NC
inactive: dose: 100.0 mg/kg/injection, schedule: Q01DX009 (ip), vehicle: saline 107 % of control | dose: 100.0 mg/kg/injection, schedule: Q04DX003 (ip), vehicle: saline 103 % of control | dose: 200.0 mg/kg/injection, schedule: Q01DX009 (ip), vehicle: saline 102 % of control | dose: 200.0 mg/kg/injection, schedule: Q04DX003 (ip), vehicle: saline 98 % of control | dose: 400.0 mg/kg/injection, schedule: Q01DX009 (ip), vehicle: saline 108 % of control | dose: 400.0 mg/kg/injection, schedule: Q04DX003 (ip), vehicle: saline 101 % of control

CCC(C(C)N1CC(=O)NC(=O)C1)N1CC(=O)NC(=O)C1 (centres undefined)
inactive: dose: 1.0 mg/kg/injection, schedule: Q04DX003 (ip), vehicle: Klucel (hydroxypropylcellulose) (HPC) 120 % of control | dose: 2.0 mg/kg/injection, schedule: Q01DX009 (ip), vehicle: Klucel (hydroxypropylcellulose) (HPC) 102 % of control | dose: 2.0 mg/kg/injection, schedule: Q04DX003 (oral), vehicle: Klucel (hydroxypropylcellulose) (HPC) 123 % of control | dose: 4.0 mg/kg/injection, schedule: Q01DX009 (ip), vehicle: Klucel (hydroxypropylcellulose) (HPC) 91 % of control | dose: 16.0 mg/kg/injection, schedule: Q04DX003 (ip), vehicle: Klucel (hydroxypropylcellulose) (HPC) 96 % of control | dose: 32.0 mg/kg/injection, schedule: Q04DX003 (ip), vehicle: Klucel (hydroxypropylcellulose) (HPC) 119 % of control | dose: 64.0 mg/kg/injection, schedule: Q04DX003 (oral), vehicle: Klucel (hydroxypropylcellulose) (HPC) 93 % of control
active: dose: 0.5 mg/kg/injection, schedule: Q01DX009 (ip), vehicle: Klucel (hydroxypropylcellulose) (HPC) 154 % of control | dose: 4.0 mg/kg/injection, schedule: Q04DX003 (ip), vehicle: Klucel (hydroxypropylcellulose) (HPC) 203 % of control | dose: 8.0 mg/kg/injection, schedule: Q04DX003 (ip), vehicle: Klucel (hydroxypropylcellulose) (HPC) 219 % of control | dose: 8.0 mg/kg/injection, schedule: Q04DX003 (oral), vehicle: Klucel (hydroxypropylcellulose) (HPC) 161 % of control

Cc1nn(C(N)=S)c(C)c1N=Nc1cccc(Cl)c1
inactive: [6] 96 % of control | dose: 150.0 mg/kg/injection, schedule: Q01DX001 (ip), vehicle: other 100 % of control | dose: 300.0 mg/kg/injection, schedule: Q01DX001 (ip), vehicle: other 105 % of control

CC(N)CC(N)CC(=O)O (centres undefined)
inactive: [1] 96 % of control and 98 % of control | [2] 98 % of control and 104 % of control | dose: 400.0 mg/kg/injection, schedule: Q01DX001 (ip), vehicle: saline 91 % of control and 102 % of control

NC(N)=N/N=C/c1cccs1
inactive: dose: 15.0 mg/kg/injection, schedule: Q01DX Z (oral), vehicle: saline 90 % of control | dose: 30.0 mg/kg/injection, schedule: Q01DX Z (ip), vehicle: saline 90 % of control | dose: 30.0 mg/kg/injection, schedule: Q01DX Z (oral), vehicle: saline 92 % of control | dose: 60.0 mg/kg/injection, schedule: Q01DX Z (oral), vehicle: saline 92 % of control

C(=Nc1ccc(N=Cc2ccco2)cc1)c1ccco1
inactive: dose: 87.5 mg/kg/injection, schedule: Q01DX009 (ip), vehicle: Klucel (hydroxypropylcellulose) (HPC) 93 % of control | dose: 175.0 mg/kg/injection, schedule: Q01DX009 (ip), vehicle: Klucel (hydroxypropylcellulose) (HPC) 100 % of control | dose: 350.0 mg/kg/injection, schedule: Q01DX009 (ip), vehicle: Klucel (hydroxypropylcellulose) (HPC) 97 % of control
